This data set can be described thus: Solubility of the solids in organic and aqueous media / common solvents. The class given is physicochemical.

Consider `Nc1c(N)c(=O)c2[nH]c3c(=O)c(N)c(N)c(=O)c3[nH]c2c1=O` [BTABQ, tetraamino-dihydrophenazine-1,4,6,9-tetrone], for which the “solubility (form insoluble solids)” value (in both organic and aqueous media) is “insoluble”. For the same compound, the solubility result is listed as “insoluble” (in common NMR solvents) and “highly insoluble” (in common organic solvents).
